Assays:
Mast cell [1] = experiment: Inhibition of A23187-induced histamine release in rat peritoneal mast cells; type: functional, cell-based
Mast cell [2] = experiment: Inhibition of anti-IgE-induced histamine release in porcine lung mast cells at 20 uM; type: functional; details: Sus scrofa
Mast cell [3] = experiment: Inhibition of compound 48/80-induced histamine release in rat peritoneal mast cells; type: functional, cell-based
Mast cell [4] = experiment: Inhibition of vancomycin-induced histamine release in rat peritoneal mast cells; type: functional, cell-based
Mast cell [5] = experiment: Inhibition of concanavalin A-induced histamine release in rat peritoneal mast cells; type: functional, cell-based
Mast cell [6] = experiment: Inhibition of A23187-induced histamine release in porcine peritoneal mast cells at 20 uM; type: functional; details: Sus scrofa
Mus musculus [7] = experiment: Inhibition of IgE-induced PCA reaction in albino Swiss mouse at 3 mg/kg administered intradermally; type: functional; set-up: Activity: scale not given: the % may be the effect or the level left; details: for inhibition in vivo at 3 mg/kg: Mus musculus, albino Swiss
Mus musculus [8] = experiment: Inhibition of IgE-induced PCA reaction in intradermally dosed albino Swiss mouse; type: functional, organism-based

SMILES | IC50 (Mast cell [1]) [µM] | inhibition at 20 µM (Mast cell [2]) [%] | IC50 (Mast cell [3]) [µM] | IC50 (Mast cell [4]) [µM] | IC50 (Mast cell [5]) [µM] | inhibition at 20 µM (Mast cell [6]) [%] | inhibition in vivo at 3 mg/kg (Mus musculus [7]) [%] | inhibition (Mus musculus [8]) | Activity (Mus musculus [7]) [%]
CN([C@H]1CCc2ccccc2C1)[C@@H]1CC(=O)c2ccccc21 | 6.97 | 81 | 2.18 | 12.6 | 1.6 | 48 | 68 |  | 
CN([C@H]1CCc2ccccc2C1)[C@H]1CC(=O)c2ccccc21 | 8.06 | 86 | 1.49 |  | 1.6 | 40 | 73 |  | 
CN([C@@H]1CCc2ccccc2C1)[C@@H]1CC(=O)c2ccccc21 | 9.48 | 89 | 3.03 |  | 13.1 | 22 | 77 |  | 
CN(C1CCc2ccccc2C1)C1CC(=O)c2ccccc21 (centres undefined) |  |  |  |  |  |  | 83 |  | 
CN([C@@H]1CCc2ccccc2C1)[C@H]1CC(=O)c2ccccc21 | 4.08 | 53 | 1.51 | 4.47 | 16.9 | 31 | 111 | Dose-dependent effect | 
O=C([O-])c1cc(=O)c2c(OCC(O)COc3cccc4oc(C(=O)[O-])cc(=O)c34)cccc2o1.[Na+].[Na+] [CROMOLYN SODIUM] |  |  |  |  |  |  |  |  | 73
